{
  "source": "ChEMBL document CHEMBL3639272",
  "about": "“2-morpholino-pyrido[3,2-D]pyrimidines” (2013)",
  "target": "Phosphatidylinositol 4,5-bisphosphate 3-kinase catalytic subunit alpha isoform (Homo sapiens, UniProt P42336)",
  "sequence (P42336 whole entry, canonical isoform)": "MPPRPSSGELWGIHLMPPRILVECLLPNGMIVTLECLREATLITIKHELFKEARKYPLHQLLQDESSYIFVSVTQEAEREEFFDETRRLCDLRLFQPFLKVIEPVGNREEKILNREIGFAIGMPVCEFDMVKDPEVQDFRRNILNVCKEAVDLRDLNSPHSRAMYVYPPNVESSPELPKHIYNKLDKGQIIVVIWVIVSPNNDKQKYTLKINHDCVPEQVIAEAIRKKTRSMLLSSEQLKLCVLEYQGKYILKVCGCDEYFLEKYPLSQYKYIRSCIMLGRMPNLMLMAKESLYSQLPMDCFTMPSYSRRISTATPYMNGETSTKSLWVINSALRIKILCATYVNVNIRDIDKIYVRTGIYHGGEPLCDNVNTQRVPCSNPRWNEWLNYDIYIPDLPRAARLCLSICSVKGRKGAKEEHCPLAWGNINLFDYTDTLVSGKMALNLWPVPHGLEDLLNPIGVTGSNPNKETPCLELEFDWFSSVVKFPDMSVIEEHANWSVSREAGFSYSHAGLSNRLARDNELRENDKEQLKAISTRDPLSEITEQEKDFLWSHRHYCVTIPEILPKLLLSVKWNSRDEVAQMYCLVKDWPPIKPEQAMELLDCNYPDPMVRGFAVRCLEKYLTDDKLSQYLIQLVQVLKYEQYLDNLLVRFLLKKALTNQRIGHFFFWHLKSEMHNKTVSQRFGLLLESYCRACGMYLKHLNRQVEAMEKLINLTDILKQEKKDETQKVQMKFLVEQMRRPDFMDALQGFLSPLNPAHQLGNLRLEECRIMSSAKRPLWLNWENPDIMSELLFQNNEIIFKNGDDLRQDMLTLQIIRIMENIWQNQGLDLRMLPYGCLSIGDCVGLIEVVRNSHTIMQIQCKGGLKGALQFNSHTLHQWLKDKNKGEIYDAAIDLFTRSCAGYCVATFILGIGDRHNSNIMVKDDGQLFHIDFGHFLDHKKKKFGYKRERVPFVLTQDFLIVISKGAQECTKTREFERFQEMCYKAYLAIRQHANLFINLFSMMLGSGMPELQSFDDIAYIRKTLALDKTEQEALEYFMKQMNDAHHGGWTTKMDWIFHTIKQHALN",
  "experiment": "Biological Assays: The efficacy of compounds of the invention in inhibiting the PI3K induced-lipid phosphorylation may be tested in the following binding assay. The assay combines the scintillation proximity assay technology (SPA, Amersham) with the capacity of neomycin (a polycationic antibiotic) to bind phospholipids with high affinity and specificity. The Scintillation Proximity Assay is based on the properties of weakly emitting isotopes (such as 3H, 125I, 33P). Coating SPA beads with neomycin allows the detection of phosphorylated lipid substrates after incubation with recombinant PI3K and radioactive ATP in the same well, by capturing the radioactive phospholipids to the SPA beads through their specific binding to neomycin.",
  "data": [
    {"smiles": "O=C(O)c1cc(-c2cccc3ccccc23)c2nc(N3CCOCC3)nc(-c3cccc(O)c3)c2n1", "values": [
      {"measurement": "IC50", "value": 0.057, "unit": "µM"}
    ]}
  ]
}
